Measurements taken from patent US8912146B2, “Derivatives of APF and methods of use” (University of Maryland, Baltimore, priority 2008, dated 2014).
Entries after “also recorded” stand apart in the source; their conditions may differ.

Legend:
IC/PBS cell monolayers = assay: Paracellular permeability (14C-mannitol and 3H-inulin flux, Transwell) of IC/PBS cell monolayers; assay type: cell-based, human; details: 16 or 30 days treatment
Procedure: Flux assays were performed using 12-mm Transwell culture plates (Corning Incorporated, Corning, N.Y.), as previously described (Keay et al., 2000). Cells were plated at 4×10^5 cells/cm^2 on the insert and grown in DMEM-F12 medium containing 10% heat-inactivated FBS, 1% antibiotic solution, 1% L-glutamine, 0.25 units/ml insulin (all from Sigma, St. Louis, Mo.), and 5 ng/ml hEGF (R & D Systems, Minneapolis, Minn.) to establish tight monolayers. On day 2, the medium was changed to MEM (GIBCO/Invitrogen) containing 1% antibiotic/antimycotic solution and 1% L-glutamine (Sigma).
Two different membrane impermeable molecules, [14C]-mannitol (molecular weight: 184 Daltons) and [^3H]-inulin (molecular weight: 5,200 Daltons), served as paracellular tracers. […] Flux assays were performed at 37° C.; basal medium was collected at 0.5-6 hrs after addition of [^14C]-mannitol or [3H]-inulin, and the amount of radioactivity determined using a Beckman LS 5000 scintillation counter. Results were expressed as percentage of total counts for each tracer.
For the permeability assay, the percentage of total counts in the basal medium was determined in four experiments (using different IC/PBS cell donors), and expressed as mean±standard deviation. […]

[1] = test system: APF activity in normal bladder epithelial cells; assay: Inhibition of APF antiproliferative activity in as-APF-treated normal bladder epithelial cells (3H-thymidine); assay type: cell-based, human; details: pretreatment, then as-APF (0.25 or 0.025 μM; 25 nM in FIG. 54), normal and/or IC/PBS bladder cells
Procedure: Explanted cells grown from the biopsies of normal controls were plated on Day 0 at 1.5×10^4 cells/well onto a 96-well cell culture plate (VWR 29442-054), in 150 μL/well MEM containing 10% heat-inactivated FBS, 1% antibiotic/antimycotic solution, and 1% L-glutamine (all from Sigma), serum starved on Day 1, and treated with varying concentrations of D-pipecolic acid diluted in phosphate buffered saline (PBS) for 2 hours at 37° C. in a 5% CO2 atmosphere. […] The cell contents were then harvested and methanol-fixed onto glass fiber filter paper, and the amount of radioactivity incorporated was determined. Significance of the difference in mean values between groups was determined by an analysis of variance.
IC/PBS cells were incubated with varying concentrations of two derivatives shown to inhibit APF activity in normal bladder cells—GalGalNAc-TV(D-pipecolic acid) AAVVVA (SEQ ID NO:14) and GalGalNAc-TV (D-proline)AAVVVA (SEQ ID NO:27). Cell proliferation was determined by ^3H-thymidine incorporation; gene expression by quantitative RT-PCR; specific protein expression by Western blot analysis; tight junction formation by confocal immunofluorescence microscopy; and paracellular permeability by ^14C-mannitol and ^3H-inulin flux between confluent cells on Transwell plates. Significance of the difference in mean values between groups was determined by an analysis of variance for each assay. […]

## CC(=O)NC1C(O[C@@H]2OC(CO)[C@H](O)C(O)C2O)[C@@H](O)C(CO)O[C@@H]1OC(C)[C@H](N)C(=O)NC(C(=O)N1CCCC1C(=O)NC(C)C(=O)N[C@@H](C)C(=O)NC(C(=O)N[C@H](C(=O)NC(C(=O)N[C@@H](C)C(=O)O)C(C)C)C(C)C)C(C)C)C(C)C (stereo in doubt) [Derivative 8, GalGalNAc-TV(D-proline)AAVVVA]
IC/PBS cell monolayers
  paracellular permeability of IC/PBS cells (14C-mannitol, 3H-inulin): significantly decrease permeability
IC/PBS cell monolayers; listed as D-proline APF
  paracellular permeability of IC/PBS cells (14C-mannitol, 3H-inulin): normalized; also recorded: significantly decreased paracellular permeability
[1]
  inhibition of APF antiproliferative activity: blocked APF antiproliferative activity
[1]; listed as D-proline APF
  inhibition of APF antiproliferative activity: inhibit the effect of as-APF on normal bladder epithelial cell proliferation; also recorded: inhibited this activity in nanomolar concentrations in a dose-dependent manner
